This passage reports EC50 results from patent US20220233549A1, “METHOD FOR ALPHAVIRUS INHIBITION” (priority 2019, published 2022).

This assay has as its system CHIKV 181/clone25. Briefly: CHIKV cytopathic effect (CPE) protection assay in Vero cells. Conditions: Chikungunya virus; CHIKV 181/clone25, Vero cells, MOI=0.01, 48 hrs, protection from CPE (crystal violet, absorbance 595nm). The format is cell-based.
With `CN1C(=O)C(CC(=O)NCc2ccc(F)cc2)Sc2ncccc21` (centres unmarked) [Example 24, N-(4-fluorobenzyl)-2-(1-methyl-2-oxo-2,3-dihydro-1H-pyrido[2,3-b][1,4]thiazin-3-yl)acetamide], the EC50 (as a rule, the concentration giving half of the maximal effect) was less than 10 µM. Next, `CC(C)NC(=O)CC1Sc2ncccc2N(C)C1=O` (centres unmarked) [Example 10, N-isopropyl-2-(1-methyl-2-oxo-2,3-dihydro-1H-pyrido[2,3-b][1,4]thiazin-3-yl)acetamide]: greater than 100 µM.

`CC(C)(C)CCCNC(=O)CC1Sc2ncccc2NC1=O` (centres unmarked) [Example 68, N-(4,4-dimethylpentyl)-2-(2-oxo-2,3-dihydro-1H-pyrido[2,3-b][1,4]thiazin-3-yl)acetamide] gave an EC50 of 10 to 49.9 µM.

In turn, `CC(C)N1CCN(C(=O)CC2Sc3ncccc3N(C)C2=O)CC1` (centres unmarked) [Example 32, 3-(2-(4-isopropylpiperazin-1-yl)-2-oxoethyl)-1-methyl-1H-pyrido[2,3-b][1,4]thiazin-2(3H)-one] registered an EC50 greater than 100 µM. Turning to `O=C(CC1Sc2ncccc2NC1=O)NCC1CCC(O)CC1` (centres unmarked) [Example 4, N-((4-hydroxycyclohexyl)methyl)-2-(2-oxo-2,3-dihydro-1H-pyrido[2,3-b][1,4]thiazin-3-yl)acetamide], the EC50 is greater than 100 µM. With `CN1C(=O)[C@H](CC(=O)NCC2CCCCC2)Sc2ncccc21` [Example 7, (S)-N-(cyclohexylmethyl)-2-(1-methyl-2-oxo-2,3-dihydro-1H-pyrido[2,3-b][1,4]thiazin-3-yl)acetamide] the figure was 10 to 49.9 µM; with `O=C(CC1Cc2ncccc2NC1=O)NCC1CCCCC1` (centres unmarked) [Example 88, N-(cyclohexylmethyl)-2-(2-oxo-1,2,3,4-tetrahydro-1,5-naphthyridin-3-yl)acetamide], 10 to 49.9 µM; with `O=C(O)CC1Sc2ncccc2NC1=O` (centres unmarked) [Example 5, 2-(2-oxo-2,3-dihydro-1H-pyrido[2,3-b][1,4]thiazin-3-yl)acetic acid], greater than 100 µM. Next, `O=C(CC1CCCCC1)NCC1Sc2ncccc2NC1=O` (centres unmarked) [Example 73, 2-cyclohexyl-N-((2-oxo-2,3-dihydro-1H-pyrido[2,3-b][1,4]thiazin-3-yl)methyl)acetamide]: 10 to 49.9 µM; `O=C(CC1Oc2ncccc2NC1=O)NCC1CCCCC1` (centres unmarked) [Example 91, N-(cyclohexylmethyl)-2-(2-oxo-2,3-dihydro-1H-pyrido[2,3-b][1,4]oxazin-3-yl)acetamide]: 10 to 49.9 µM. Next, `COCCNC(=O)CC1Sc2ncccc2N(C)C1=O` (centres unmarked) [Example 18, N-(2-methoxyethyl)-2-(1-methyl-2-oxo-2,3-dihydro-1H-pyrido[2,3-b][1,4]thiazin-3-yl)acetamide]: greater than 100 µM; `CN1C(=O)C(CC(=O)NCc2ccccc2)Sc2ncccc21` (centres unmarked) [Example 15, N-benzyl-2-(1-methyl-2-oxo-2,3-dihydro-1H-pyrido[2,3-b][1,4]thiazin-3-yl)acetamide]: 10 to 49.9 µM; `CN1C(=O)C(CC(=O)N2CCCC2)Sc2ncccc21` (centres unmarked) [Example 37, 1-methyl-3-(2-oxo-2-(pyrrolidin-1-yl)ethyl)-1H-pyrido[2,3-b][1,4]thiazin-2(3H)-one]: greater than 100 µM. Compound `CCN1C(=O)C(CC(=O)NCC2CCCCC2)Sc2ncccc21` (centres unmarked) [Example 44, N-(cyclohexylmethyl)-2-(1-ethyl-2-oxo-2,3-dihydro-1H-pyrido[2,3-b][1,4]thiazin-3-yl)acetamide] showed an EC50 of 10 to 49.9 µM. Take `O=C(CC1Sc2ncccc2NC1=O)NCCc1ccc(F)cc1` (centres unmarked) [Example 57, N-(4-fluorophenethyl)-2-(2-oxo-2,3-dihydro-1H-pyrido[2,3-b][1,4]thiazin-3-yl)acetamide]: the EC50 fell in the range of 10 to 49.9 µM.

`COCC1(CNC(=O)CC2Sc3ncccc3NC2=O)CCCCC1` (centres unmarked) [Example 82, N-((1-(methoxymethyl)cyclohexyl)meth-yl)-2-(2-oxo-2,3-dihydro-1H-pyrido[2,3-b][1,4]thiazin-3-yl)acetamide]: the EC50 lay in the range of 50 to 99.9 µM. With `O=C(CC1Sc2ncccc2NC1=O)NCc1cc(F)cc(F)c1` (centres unmarked) [Example 52, N-(3,5-difluorobenzyl)-2-(2-oxo-2,3-dihydro-1H-pyrido[2,3-b][1,4]thiazin-3-yl)acetamide] the figure was greater than 100 µM.

For the compound `CCN1CCN(C(=O)CC2Sc3ncccc3N(C)C2=O)CC1` (centres unmarked) [Example 11, 3-(2-(4-ethylpiperazin-1-yl)-2-oxoethyl)-1-methyl-1H-pyrido[2,3-b][1,4]thiazin-2(3H)-one], the EC50 is greater than 100 µM. Consider `CN1C(=O)C(CC(=O)N2CCCCCC2)Sc2ncccc21` (centres unmarked) [Example 31, 3-(2-(azepan-1-yl)-2-oxoethyl)-1-methyl-1H-pyrido[2,3-b][1,4]thiazin-2(3H)-one], for which the concentration giving a half-maximal response (EC50) was greater than 100 µM.

The compound `CN1C(=O)C(CC(=O)NC2CCCC2)Sc2ncccc21` (centres unmarked) [Example 22, N-cyclopentyl-2-(1-methyl-2-oxo-2,3-dihydro-1H-pyrido[2,3-b][1,4]thiazin-3-yl)acetamide] had an EC50 of 50 to 99.9 µM.

`O=C(CC1Sc2ncc(Br)cc2NC1=O)NCC1CCCCC1` (centres unmarked) [Example 87, 2-(7-bromo-2-oxo-2,3-dihydro-1H-pyrido[2,3-b][1,4]thiazin-3-yl)-N-(cyclohexylmethyl)acetamide] displayed an EC50 of 10 to 49.9 µM.

In turn, `CCC(C)(C)CNC(=O)CC1Sc2ncccc2NC1=O` (centres unmarked) [Example 75, N-(2,2-dimethylbutyl)-2-(2-oxo-2,3-dihydro-1H-pyrido[2,3-b][1,4]thiazin-3-yl)acetamide] returned an EC50 of less than 10 µM. `CC(C)(C)CCNC(=O)CC1Sc2ncccc2NC1=O` (centres unmarked) [Example 64, N-(3,3-dimethylbutyl)-2-(2-oxo-2,3-dihydro-1H-pyrido[2,3-b][1,4]thiazin-3-yl)acetamide] yielded an EC50 greater than 100 µM. With `O=C(CC1Sc2ncccc2NC1=O)NCc1ccc(Cl)cc1` (centres unmarked) [Example 53, N-(4-chlorobenzyl)-2-(2-oxo-2,3-dihydro-1H-pyrido[2,3-b][1,4]thiazin-3-yl)acetamide], the concentration for a half-maximal effect (EC50) lay in the range of 10 to 49.9 µM. With `CN1C(=O)C(CC(=O)NCc2ccco2)Sc2ncccc21` (centres unmarked) [Example 30, N-(furan-2-ylmethyl)-2-(1-methyl-2-oxo-2,3-dihydro-1H-pyrido[2,3-b][1,4]thiazin-3-yl)acetamide] the figure was greater than 100 µM; with `O=C(CC1Sc2ncccc2NC1=O)NCc1ccc(Cl)c(Cl)c1` (centres unmarked) [Example 49, N-(3,4-dichlorobenzyl)-2-(2-oxo-2,3-dihydro-1H-pyrido[2,3-b][1,4]thiazin-3-yl)acetamide], greater than 100 µM; with `CN1C(=O)C(CC(=O)NCc2cccnc2)Sc2ncccc21` (centres unmarked) [Example 13, 2-(1-methyl-2-oxo-2,3-dihydro-1H-pyrido[2,3-b][1,4]thiazin-3-yl)-N-(pyridin-3-ylmethyl)acetamide], greater than 100 µM.

Consider `CCCCNC(=O)CC1Sc2ncccc2NC1=O` (centres unmarked) [Example 70, N-butyl-2-(2-oxo-2,3-dihydro-1H-pyrido[2,3-b][1,4]thiazin-3-yl)acetamide], for which the EC50 lay within 50 to 99.9 µM. With `CCCCCNC(=O)CC1Sc2ncccc2NC1=O` (centres unmarked) [Example 71, 2-(2-oxo-2,3-dihydro-1H-pyrido[2,3-b][1,4]thiazin-3-yl)-N-pentylacetamide] the figure was 10 to 49.9 µM; with `CC(C)CCNC(=O)CC1Sc2ncccc2N(C)C1=O` (centres unmarked) [Example 29, N-isopentyl-2-(1-methyl-2-oxo-2,3-dihydro-1H-pyrido[2,3-b][1,4]thiazin-3-yl)acetamide], less than 10 µM. Compound `CCCN1CCN(C(=O)CC2Sc3ncccc3N(C)C2=O)CC1` (centres unmarked) [Example 34, 1-methyl-3-(2-oxo-2-(4-propylpiperazin-1-yl)ethyl)-1H-pyrido[2,3-b][1,4]thiazin-2(3H)-one] displayed a concentration giving a half-maximal response (EC50) greater than 100 µM.

Turning to `CCN1C(=O)C(CC(=O)NCc2ccncc2)Sc2ncccc21` (centres unmarked) [Example 42, 2-(1-ethyl-2-oxo-2,3-dihydro-1H-pyrido[2,3-b][1,4]thiazin-3-yl)-N-(pyridin-4-ylmethyl)acetamide], the EC50 was greater than 100 µM. Next, `CC(NC(=O)CC1Sc2ncccc2N(C)C1=O)c1cccnc1` (centres unmarked) [Example 39, 2-(1-methyl-2-oxo-2,3-dihydro-1H-pyrido[2,3-b][1,4]thiazin-3-yl)-N-(1-(pyridin-3-yl)ethyl)acetamide]: greater than 100 µM. Next, `O=C(CC1Sc2ncccc2NC1=O)NCC1CCCC1` (centres unmarked) [Example 63, N-(cyclopentylmethyl)-2-(2-oxo-2,3-dihydro-1H-pyrido[2,3-b][1,4]thiazin-3-yl)acetamide]: less than 10 µM; `COC1(CNC(=O)CC2Sc3ncccc3NC2=O)CCCCC1` (centres unmarked) [Example 79, N-((1-methoxycyclohexyl)methyl)-2-(2-oxo-2,3-dihydro-1H-pyrido[2,3-b][1,4]thiazin-3-yl)acetamide]: less than 10 µM; `CCC(CC)CNC(=O)CC1Sc2ncccc2NC1=O` (centres unmarked) [Example 61, N-(2-ethylbutyl)-2-(2-oxo-2,3-dihydro-1H-pyrido[2,3-b][1,4]thiazin-3-yl)acetamide]: 10 to 49.9 µM. With `O=C(CC1Sc2ncccc2NC1=O)NCc1ccc(F)c(F)c1` (centres unmarked) [Example 50, N-(3,4-difluorobenzyl)-2-(2-oxo-2,3-dihydro-1H-pyrido[2,3-b][1,4]thiazin-3-yl)acetamide] the figure was 10 to 49.9 µM; with `O=C(CC1Sc2ncccc2NC1=O)NCC1=CCCCC1` (centres unmarked) [Example 85, N-(cyclohex-1-en-1-ylmethyl)-2-(2-oxo-2,3-dihydro-1H-pyrido[2,3-b][1,4]thiazin-3-yl)acetamide], 10 to 49.9 µM; with `CC(C)CCCNC(=O)CC1Sc2ncccc2NC1=O` (centres unmarked) [Example 67, N-(4-methylpentyl)-2-(2-oxo-2,3-dihydro-1H-pyrido[2,3-b][1,4]thiazin-3-yl)acetamide], 10 to 49.9 µM. Take `Cc1ccc(CNC(=O)CC2Sc3ncccc3N(C)C2=O)cc1` (centres unmarked) [Example 26, 2-(1-methyl-2-oxo-2,3-dihydro-1H-pyrido[2,3-b][1,4]thiazin-3-yl)-N-(4-methylbenzyl)acetamide]: the EC50 lay in the range of 10 to 49.9 µM. Next, `O=C(CC1CNc2cccnc2S1)NCC1CCCCC1` (centres unmarked) [Example 92, N-(cyclohexylmethyl)-2-(2,3-dihydro-1H-pyrido[2,3-b][1,4]thiazin-3-yl)acetamide]: 10 to 49.9 µM.
